Patent US5273991A, “Imidazole-containing compositions and methods of use thereof analogs of distamycin” (Research Corporation Technologies, Inc., priority 1992, dated 1993)

Assays:
[1] = test system: human chronic myelogenous leukemic K562 cells; test: growth inhibition of K562 cells (MTT viability assay); type: cell-based; conditions: 1 hour drug exposure at 37° C.; 5-6 days; MTT
Experimental: The ability of the compounds of the present invention to inhibit the growth of human chronic myelogenous leukemic K562 cells was determined as follows.
The incubation was terminated by centrifugation (5 minutes, 300 g) and the cells washed once with drug-free medium.
Following the appropriate drug treatment, the cells were transferred to 96-well microtiter plates, 10^4 cells per well, 8 wells per sample. Plates were then kept in the dark at 37° C. in a humidified atmosphere containing 5% CO2. […] Following incubation of the plates of 5-6 days (to allow control cells to increase in the number by 10 fold) 20 μL of a 5 mg/mL solution of MTT in phosphate buffered saline was added to each well and the plates further incubated for 5 h. The plates were then centrifuged for 5 minutes at 300 g and the bulk of the medium pipetted from the cell pellet leaving 10-20 μL per well. 200 μL DMSO was added to each well and the samples agitated to ensure complete mixing. The optical density was then read at a wavelength of 550 nm on a Titertek Multiscan ELISA plate reader and the dose-response curve constructed.

[2] = test system: 786-0; test: NCI cytotoxicity screen (SRB); type: cell-based, human
Experimental: (§1) Compounds 6, 7, 9 and 10 were tested for cytotoxic properties by the National Cancer Institute, Bethesda, Md. The anticancer drug screen utilized a panel of 60 human tumor cell lines organized into subpanels representing leukemia, melanoma, and cancers of the lung, colon, kidney, ovary and central nervous system and is described by Monks et al. (1991) Journal of the National Cancer Institute 83, 757, which is incorporated herein by reference.
(§2) Cell lines were inoculated onto microtiter plates and preincubated for 24-28 hours. 100 μL aliquots of each compound were added to the appropriate microtiter plate wells in each of five 10-fold dilutions starting from a maximum concentration of 10^-4 M in water or DMSO. Cultures were then incubated for an additional 48 hours. Cells were then fixed in situ, followed by staining with sulforhodamine B (SRB), which binds to basic amino acids of cellular macromolecules. The solubilized stain was measured spectrophotometrically to determine relative cell growth or viability in treated and untreated cells. The monoimidazole analogs of Compounds 6, 7, 9 and 10 and the formamido analog corresponding to Compounds 7 and 10 are devoid of activity against the panel of cancer cell lines in Table III.

[3] = test system: A498; test: NCI cytotoxicity screen (SRB); type: cell-based, human
Experimental: as §1, §2

[4] = test system: ACHN; test: NCI cytotoxicity screen (SRB); type: cell-based, human
Experimental: as §1, §2

[5] = test system: CAKI-1; test: NCI cytotoxicity screen (SRB); type: cell-based, human
Experimental: as §1, §2

[6] = test system: CCRF-CEM; test: NCI cytotoxicity screen (SRB); type: cell-based, human
Experimental: as §1, §2

[7] = test system: HOP-92; test: NCI cytotoxicity screen (SRB); type: cell-based, human; conditions: subsequent test date
Experimental: as §1, §2

[8] = test system: LOX 1MV1; test: NCI cytotoxicity screen (SRB); type: cell-based, human
Experimental: as §1, §2

[9] = test system: LXFL529; test: NCI cytotoxicity screen (SRB); type: cell-based, human
Experimental: as §1, §2

[10] = test system: M14; test: NCI cytotoxicity screen (SRB); type: cell-based, human
Experimental: as §1, §2

[11] = test system: M19-MEL; test: NCI cytotoxicity screen (SRB); type: cell-based, human
Experimental: as §1, §2

[12] = test system: OVCAR-3; test: NCI cytotoxicity screen (SRB); type: cell-based, human
Experimental: as §1, §2

[13] = test system: OVCAR-4; test: NCI cytotoxicity screen (SRB); type: cell-based, human
Experimental: as §1, §2

[14] = test system: OVCAR-5; test: NCI cytotoxicity screen (SRB); type: cell-based, human
Experimental: as §1, §2

[15] = test system: RPMI-8226; test: NCI cytotoxicity screen (SRB); type: cell-based, human
Experimental: as §1, §2

[16] = test system: RXF-393; test: NCI cytotoxicity screen (SRB); type: cell-based, human
Experimental: as §1, §2

[17] = test system: RXR-631; test: NCI cytotoxicity screen (SRB); type: cell-based, human
Experimental: as §1, §2

[18] = test system: SK-MEL-28; test: NCI cytotoxicity screen (SRB); type: cell-based, human
Experimental: as §1, §2

[19] = test system: SK-MEL-2; test: NCI cytotoxicity screen (SRB); type: cell-based, human
Experimental: as §1, §2

[20] = test system: SK-MEL-5; test: NCI cytotoxicity screen (SRB); type: cell-based, human
Experimental: as §1, §2

[21] = test system: SK-OV-3; test: NCI cytotoxicity screen (SRB); type: cell-based, human
Experimental: as §1, §2

[22] = test system: SNB-19; test: NCI cytotoxicity screen (SRB); type: cell-based, human
Experimental: as §1, §2

[23] = test system: SNB-75; test: NCI cytotoxicity screen (SRB); type: cell-based, human
Experimental: as §1, §2

[24] = test system: SNB-78; test: NCI cytotoxicity screen (SRB); type: cell-based, human
Experimental: as §1, §2

[25] = test system: SR; test: NCI cytotoxicity screen (SRB); type: cell-based, human
Experimental: as §1, §2

[26] = test system: TK-10; test: NCI cytotoxicity screen (SRB); type: cell-based, human
Experimental: as §1, §2

[27] = test system: LOX IMVI; test: NCI cytotoxicity screen (SRB); type: cell-based, human; conditions: 48 h; Melanoma LOX IMVI
Experimental: as §1, §2

[28] = SK-MEL-28, subsequent test date

In the case of `CN(C)CCNC(=O)c1nc(NC(=O)c2nc(NC(=O)c3ccc(N(CCCl)CCCl)cc3)cn2C)cn1C` [Compound 6, N-(N',N'-dimethylaminoethyl)-1-methyl-4-{4-[4,4-bis(2-chloroethyl)aminobenzamido]-1-methylimidazole-2-carboxamido}imidazole-2-carboxamide], the IC50 [1] is reported as 12.5 µM, the IC50 ([2]; 786-0, subsequent test date) is reported as 6.98 µM and the IC50 ([2]; 48 h, Renal Cancer 786-0) is reported as 25.4 µM. The IC50 ([3]; 48 h, Renal Cancer A498) was 40.6 µM, the IC50 ([3]; A498, subsequent test date) was 66 µM and the IC50 ([4]; 48 h, Renal Cancer ACHN) was 54.2 µM. For the same molecule, the IC50 ([4]; ACHN, subsequent test date) was 46.9 µM, the IC50 ([5]; 48 h, Renal Cancer CAKI-1) was 51.9 µM and the IC50 ([5]; CAKI-1, subsequent test date) was 59.7 µM. The IC50 ([6]; 48 h, Leukemia CCRF-CEM) was 10.9 µM, the IC50 ([6]; CCRF-CEM, subsequent test date) was 40.3 µM and the IC50 [7] was 42.7 µM. For the same molecule, the IC50 ([8]; LOX 1MV1, subsequent test date) was 7.47 µM, the IC50 ([9]; 48 h, Non-Small Cell Lung Cancer LXFL529) was 13.2 µM and the IC50 ([9]; LXFL529, subsequent test date) was 34.8 µM. The IC50 ([10]; 48 h, Melanoma M14) was 5.92 µM, the IC50 ([10]; M14, subsequent test date) was 5.81 µM and the IC50 ([11]; 48 h, Melanoma M19-MEL) was 5.64 µM. It also gave an IC50 ([11]; M19-MEL, subsequent test date) of 5.65 µM, an IC50 ([12]; 48 h, Ovarian Cancer OVCAR-3) of 56 µM and an IC50 ([12]; OVCAR-3, subsequent test date) of 56.7 µM. The IC50 ([13]; 48 h, Ovarian Cancer OVCAR-4) was 34.2 µM, the IC50 ([13]; OVCAR-4, subsequent test date) was 14.3 µM and the IC50 ([14]; 48 h, Ovarian Cancer OVCAR-5) was 45.7 µM. It also gave an IC50 ([14]; OVCAR-5, subsequent test date) of 51.3 µM, an IC50 ([15]; 48 h, Leukemia RPMI-8226) of 30.5 µM and an IC50 ([15]; RPMI-8226, subsequent test date) of 39.4 µM. It also gave an IC50 ([16]; 48 h, Renal Cancer RXF-393) of 50.3 µM, an IC50 ([16]; RXF-393, subsequent test date) of 44.3 µM and an IC50 ([17]; 48 h, Renal Cancer RXR-631) of 6.61 µM. It also gave an IC50 ([17]; RXR-631, subsequent test date) of 9.95 µM, an IC50 ([18]; 48 h, Melanoma SK-MEL-28) of 5.69 µM and an IC50 [18, 28] of 5.78 µM. It also gave an IC50 ([19]; 48 h, Melanoma SK-MEL-2) of 7.17 µM, an IC50 ([19]; SK-MEL-2, subsequent test date) of 5.85 µM and an IC50 ([20]; SK-MEL-5, subsequent test date) of 52 µM. For the same molecule, the IC50 ([21]; 48 h, Ovarian Cancer SK-OV-3) was 52.9 µM, the IC50 ([21]; SK-OV-3, subsequent test date) was 6.18 µM and the IC50 ([22]; 48 h, CNS Cancer SNB-19) was 43.7 µM. The IC50 ([22]; SNB-19, subsequent test date) was 32.4 µM, the IC50 ([23]; 48 h, CNS Cancer SNB-75) was 41 µM and the IC50 ([23]; SNB-75, subsequent test date) was 41.7 µM. For the same molecule, the IC50 ([24]; 48 h, CNS Cancer SNB-78) was 67.2 µM, the IC50 ([24]; SNB-78, subsequent test date) was 78.9 µM and the IC50 ([25]; 48 h, Leukemia SR) was 10.4 µM. For the same molecule, the IC50 ([25]; SR, subsequent test date) was greater than 100 µM, the IC50 ([26]; 48 h, Renal Cancer TK-10) was 59.9 µM and the IC50 ([26]; TK-10, subsequent test date) was 56.2 µM.

`CN(C)CCNC(=O)c1nc(NC(=O)c2nc(NC(=O)c3nc(NC(=O)c4ccc(N(CCCl)CCCl)cc4)cn3C)cn2C)cn1C` [Compound 7, N-(N',N'-dimethylaminoethyl)-1-methyl-4-{1-methyl-4-[4-(4,4-bis-(2-chloroethyl)aminobenzamido)-1-methylimidazole-2-carboxamido]imidazole-2-carboxamido}imidazole-2-carboxamide] gave an IC50 [1] of 0.3 µM, an IC50 ([2]; 786-0, subsequent test date) of 0.51 µM and an IC50 ([3]; 48 h, Renal Cancer A498) of 7.76 µM. The IC50 ([4]; 48 h, Renal Cancer ACHN) was 7.05 µM, the IC50 ([4]; ACHN, subsequent test date) was 4.92 µM and the IC50 ([5]; 48 h, Renal Cancer CAKI-1) was greater than 100 µM. It also gave an IC50 ([6]; 48 h, Leukemia CCRF-CEM) of 1.52 µM, an IC50 [7] of 3.33 µM and an IC50 ([8]; 48 h, Melanoma LOX 1MV1) of 0.89 µM. It also gave an IC50 ([8]; LOX 1MV1, subsequent test date) of 4.51 µM, an IC50 ([9]; LXFL529, subsequent test date) of 0.54 µM and an IC50 ([10]; M14, subsequent test date) of 0.59 µM. The IC50 ([11]; M19-MEL, subsequent test date) was 0.78 µM, the IC50 ([12]; 48 h, Ovarian Cancer OVCAR-3) was 0.72 µM and the IC50 ([12]; OVCAR-3, subsequent test date) was 0.62 µM. It also gave an IC50 ([13]; 48 h, Ovarian Cancer OVCAR-4) of 0.61 µM, an IC50 ([13]; OVCAR-4, subsequent test date) of 0.5 µM and an IC50 ([14]; 48 h, Ovarian Cancer OVCAR-5) of 6.13 µM. It also gave an IC50 ([14]; OVCAR-5, subsequent test date) of 5.24 µM, an IC50 ([16]; 48 h, Renal Cancer RXF-393) of 0.66 µM and an IC50 ([17]; 48 h, Renal Cancer RXR-631) of 5.97 µM. The IC50 ([18]; 48 h, Melanoma SK-MEL-28) was 0.91 µM, the IC50 [18, 28] was 0.64 µM and the IC50 ([19]; 48 h, Melanoma SK-MEL-2) was 0.65 µM. The IC50 ([20]; 48 h, Melanoma SK-MEL-5) was 0.63 µM, the IC50 ([21]; 48 h, Ovarian Cancer SK-OV-3) was 0.83 µM and the IC50 ([21]; SK-OV-3, subsequent test date) was 0.48 µM. It also gave an IC50 ([22]; 48 h, CNS Cancer SNB-19) greater than 100 µM, an IC50 ([23]; 48 h, CNS Cancer SNB-75) of 0.61 µM and an IC50 ([25]; 48 h, Leukemia SR) of 0.91 µM. For the same molecule, the IC50 ([26]; 48 h, Renal Cancer TK-10) was 4.2 µM and the IC50 ([26]; TK-10, subsequent test date) was 3.51 µM.

For `CN(C)CCNC(=O)c1nc(NC(=O)c2nc(NC(=O)c3nc(NCc4ccc(N(CCCl)CCCl)cc4)cn3C)cn2C)cn1C` [Compound 8, N-(N',N'-dimethylaminoethyl)-1-methyl-4-{1-methyl-4-[4-(4,4-bis-(2-chloroethyl)aminobenzylamino)-1-methylimidazole-2-carboxamido]imidazole-2-carboxamido}imidazole-2-carboxamide], the IC50 [1] was 0.85 µM.

`CN(C)CCNC(=O)c1nc(NC(=O)c2nc(NC(=O)CCCc3ccc(N(CCCl)CCCl)cc3)cn2C)cn1C` [Compound 9, N-(N',N'-dimethylaminoethyl)-1-methyl-4-{4-[4,4-bis(2-chloroethyl)aminophenyl-1-butanamido]-1-methylimidazole-2-carboxamido}imidazole-2-carboxamide] was tested, and the IC50 [1] was 70 µM and the IC50 [27] was 49.5 µM.

For `CN(C)CCNC(=O)c1nc(NC(=O)c2nc(NC(=O)c3nc(NC(=O)CCCc4ccc(N(CCCl)CCCl)cc4)cn3C)cn2C)cn1C` [Compound 10, N-(N',N'-dimethylaminoethyl)-1-methyl-4-{1-methyl-4-[4-(4,4-bis(2-chloroethyl)aminophenyl-1-butanamido)-1-methylimidazole-2-carboxamido]imidazole-2-carboxamido}imidazole-2-carboxamide], the IC50 [1] was 28 µM, the IC50 [27] was 6.44 µM and the IC50 ([15]; 48 h, Leukemia RPMI-8226) was 9.5 µM. It also gave an IC50 ([24]; 48 h, CNS Cancer SNB-78) of 9.75 µM.
